This is an account of results in PubChem BioAssay AID330 (DTP/NCI, 2004).

Where “and” joins values, the source holds several entries; their conditions need not be identical. Equal values may be shown once. Inconclusive results and toxic doses are left out.

This assay deals with P388 leukemia ip, CD2F1 mice, survival T/C. The experiment in a line: NCI In Vivo Anticancer Drug Screen. Data for tumor model P388 Leukemia (intraperitoneal) in CD2F1 (CDF1) mice. The conditions noted are these: endpoint: median survival time, higher = longer survival. The method in brief: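 Mice carrying the transplanted tumor received test compound or vehicle. Survival was recorded in each group, and the value is the treated-group measurement divided by that of the vehicle-treated control group.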

[1] abbreviates: dose: 100.0 mg/kg/injection, schedule: Q04DX003 (ip), vehicle: Klucel (hydroxypropylcellulose) (HPC).
Where [2] appears, read: dose: 200.0 mg/kg/injection, schedule: Q04DX003 (ip), vehicle: Klucel (hydroxypropylcellulose) (HPC).
Where [3] appears, read: dose: 400.0 mg/kg/injection, schedule: Q04DX003 (ip), vehicle: Klucel (hydroxypropylcellulose) (HPC).
Where [4] appears, read: dose: 50.0 mg/kg/injection, schedule: Q01DX009 (ip), vehicle: saline with Tween-80.
Setting [5] is: dose: 50.0 mg/kg/injection, schedule: Q01DX005 (ip), vehicle: Klucel (hydroxypropylcellulose) (HPC).
Where [6] appears, read: dose: 100.0 mg/kg/injection, schedule: Q01DX005 (ip), vehicle: Klucel (hydroxypropylcellulose) (HPC).
Where [7] appears, read: dose: 200.0 mg/kg/injection, schedule: Q01DX005 (ip), vehicle: Klucel (hydroxypropylcellulose) (HPC).
The mark [8] stands for this setting: dose: 100.0 mg/kg/injection, schedule: Q01DX009 (ip), vehicle: saline with Tween-80.
[9] abbreviates: dose: 200.0 mg/kg/injection, schedule: Q01DX009 (ip), vehicle: saline with Tween-80.
Setting [10] is: dose: 60.0 mg/kg/injection, schedule: Q01DX005 (ip), vehicle: saline with Tween-80.
The mark [11] stands for this setting: dose: 120.0 mg/kg/injection, schedule: Q01DX005 (ip), vehicle: saline with Tween-80.
[12] abbreviates: dose: 240.0 mg/kg/injection, schedule: Q01DX005 (ip), vehicle: saline with Tween-80.
The mark [13] stands for this setting: dose: 50.0 mg/kg/injection, schedule: Q01DX009 (ip), vehicle: Klucel (hydroxypropylcellulose) (HPC).
Setting [14] is: dose: 100.0 mg/kg/injection, schedule: Q01DX009 (ip), vehicle: Klucel (hydroxypropylcellulose) (HPC).
Setting [15] is: dose: 50.0 mg/kg/injection, schedule: Q01DX005 (ip), vehicle: saline with Tween-80.
The mark [16] stands for this setting: dose: 100.0 mg/kg/injection, schedule: Q01DX005 (ip), vehicle: saline with Tween-80.
[17] abbreviates: dose: 200.0 mg/kg/injection, schedule: Q01DX005 (ip), vehicle: saline with Tween-80.
The mark [18] stands for this setting: dose: 6.25 mg/kg/injection, schedule: Q04DX002 (ip), vehicle: saline with Tween-80.
Setting [19] is: dose: 12.5 mg/kg/injection, schedule: Q04DX002 (ip), vehicle: saline with Tween-80.
[20] abbreviates: dose: 60.0 mg/kg/injection, schedule: Q01DX005 (ip), vehicle: Klucel (hydroxypropylcellulose) (HPC).
[21] abbreviates: dose: 120.0 mg/kg/injection, schedule: Q01DX005 (ip), vehicle: Klucel (hydroxypropylcellulose) (HPC).
[22] abbreviates: dose: 200.0 mg/kg/injection, schedule: Q01DX009 (ip), vehicle: Klucel (hydroxypropylcellulose) (HPC).

As to `O=C1C=C(Nc2ccccc2N=C2C(N3C4=CCc5ccccc5C4=Nc4ccccc43)=CC(=O)c3ccccc32)C(=O)c2ccccc21`, the T/C reads like this: (dose: 50.0 mg/kg/injection, schedule: Q01DX009 (ip), vehicle: saline) 89 % of control; (dose: 100.0 mg/kg/injection, schedule: Q01DX009 (ip), vehicle: saline) 91 % of control; (dose: 200.0 mg/kg/injection, schedule: Q01DX009 (ip), vehicle: saline) 100 % of control.

Consider `O=C1CC2(CCCCC2)C(=O)N1c1ccc(N2C(=O)CC3(CCCCC3)C2=O)cc1`, for which the T/C is, setting by setting: under setting [1], 99 % of control; under setting [2], 93 % of control; under setting [3], 96 % of control.

As for `CC(C)OC(=O)Nc1ccccc1Cl`, the T/C by setting is: (dose: 12.5 mg/kg/injection, schedule: Q01DX009 (ip), vehicle: saline with Tween-80) 104 % of control; (dose: 25.0 mg/kg/injection, schedule: Q01DX009 (ip), vehicle: saline with Tween-80) 100 % of control; under setting [4], 109 % of control.

In the case of `CC(=O)Nc1cc2c(=O)[nH]cnc2c([N+](=O)[O-])c1N(C)[N+](=O)[O-]`, the T/C is 101 % of control (dose: 5.0 mg/kg/injection, schedule: Q01DX005 (ip), vehicle: other); 117 % of control (dose: 10.0 mg/kg/injection, schedule: Q01DX005 (ip), vehicle: other); 109 % of control (dose: 20.0 mg/kg/injection, schedule: Q01DX005 (ip), vehicle: other); 102 % of control (dose: 40.0 mg/kg/injection, schedule: Q01DX005 (ip), vehicle: other).

Consider `O=P(c1ccccc1)(c1ccccc1)c1ccccc1OCCOCCOc1ccccc1P(=O)(c1ccccc1)c1ccccc1`, for which the T/C by setting is: under setting [5], 100 % of control; under setting [6], 91 % of control; under setting [7], 99 % of control.

`CCOC(=O)CC/C(=C/c1cccc2cc(OC)ccc12)[N+](=O)[O-]`: the T/C (dose: 50.0 mg/kg/injection, schedule: Q01DX001 (ip), vehicle: Klucel (hydroxypropylcellulose) (HPC)) is 100 % of control; the T/C (dose: 100.0 mg/kg/injection, schedule: Q01DX001 (ip), vehicle: Klucel (hydroxypropylcellulose) (HPC)) is 101 % of control; the T/C (dose: 200.0 mg/kg/injection, schedule: Q01DX001 (ip), vehicle: Klucel (hydroxypropylcellulose) (HPC)) is 104 % of control.

Consider `O=C(O)CCC(=O)Nc1ccccc1C(=O)O`, for which the T/C is 110 % of control under setting [8]; 100 % of control under setting [9]; 110 % of control (dose: 400.0 mg/kg/injection, schedule: Q01DX009 (ip), vehicle: saline with Tween-80).

For `CC1COCCOC(=O)c2cccc(n2)C(=O)OCCOCC(C)O1` (stereo not drawn), the T/C is 102 % of control under setting [1], 95 % of control under setting [2] and 102 % of control under setting [3].

For `O=c1c2ccccc2c2nccn2c2ccccc12`, the T/C was 90 % of control under setting [10], 90 % of control under setting [11] and 96 % of control under setting [12].

For the molecule `Nc1c(I)cc(I)cc1C(=O)O`, the T/C runs as follows: under setting [13], 99 % of control and 101 % of control; under setting [14], 101 % of control and 114 % of control.

For the molecule `COC1/C=C/OC2(C)Oc3c(C)c(O)c4c(O)c(c(/C=N/N5CCCN(C)CC5)c(O)c4c3C2=O)NC(=O)/C(C)=C\C=C\C(C)C(O)C(C)C(O)C(C)C(OC(C)=O)C1C` (stereo not drawn), the T/C was 104 % of control under setting [4], 100 % of control under setting [8] and 102 % of control under setting [9].

For the molecule `NC(N)=Nc1ccc(C(=O)Oc2ccc([N+](=O)[O-])cc2)cc1`, the T/C was 104 % of control (dose: 100.0 mg/kg/injection, schedule: Q04DX003 (ip), vehicle: saline with Tween-80); 100 % of control (dose: 200.0 mg/kg/injection, schedule: Q04DX003 (ip), vehicle: saline with Tween-80); 95 % of control (dose: 400.0 mg/kg/injection, schedule: Q04DX003 (ip), vehicle: saline with Tween-80).

For `CC(C)C(=O)OCC(C)(C)C(OC(=O)COc1ccc(Cl)cc1Cl)C(C)C` (stereo not drawn), the T/C was 101 % of control under setting [15], 106 % of control under setting [16] and 97 % of control under setting [17].

On to `CN=C(N)N/N=C(\C)c1ccc2c(c1)Cc1cc(/C(C)=N/NC(N)=NC)ccc1-2`, for which the T/C is 124 % of control (dose: 0.78 mg/kg/injection, schedule: Q04DX002 (ip), vehicle: saline with Tween-80); 154 % of control under setting [18]; 123 % of control under setting [19].

`COc1cc(Br)c(C2SCC(=O)N2c2nncs2)cc1OC` (stereo not drawn): the T/C reads like this: under setting [20], 121 % of control; under setting [21], 106 % of control; (dose: 240.0 mg/kg/injection, schedule: Q01DX005 (ip), vehicle: Klucel (hydroxypropylcellulose) (HPC)) 100 % of control.

For `O=C(NC1CC1)C(Cl)Cl`, the T/C is 103 % of control under setting [5] and 99 % of control under setting [6].

As for `COC(=O)C1=C(C(=O)OC)P2(C)(C)SC(=S)N2C1(c1ccccc1)c1ccccc1`, the T/C was 102 % of control under setting [5] and 91 % of control under setting [6].

With `O=C1C(N=Nc2ccc(S(=O)(=O)Nc3ccccn3)cc2)C(=O)N(c2ccc(Cl)cc2)C(=S)N1c1ccc(Cl)cc1`, the T/C was 105 % of control (dose: 50.0 mg/kg/injection, schedule: Q01DX005 (ip), vehicle: saline); 114 % of control (dose: 100.0 mg/kg/injection, schedule: Q01DX005 (ip), vehicle: saline); 112 % of control (dose: 200.0 mg/kg/injection, schedule: Q01DX005 (ip), vehicle: saline).

In the case of `COC1=CC(=O)C2=C(OCO2)C1=O`, the T/C is 104 % of control under setting [18]; 109 % of control under setting [19]; 103 % of control (dose: 25.0 mg/kg/injection, schedule: Q04DX002 (ip), vehicle: saline with Tween-80).

For `O=C(Nc1ccccc1)c1nn(-c2cc(S(=O)(=O)[O-])ccc2Cl)[n+](-c2ccccc2Cl)n1`, the T/C by setting is: under setting [20], 101 % of control; under setting [21], 101 % of control.

As to `COC1NC(=O)Oc2c(F)cccc21` (stereo not drawn), the T/C is 100 % of control (dose: 12.5 mg/kg/injection, schedule: Q01DX009 (ip), vehicle: Klucel (hydroxypropylcellulose) (HPC)); 95 % of control (dose: 25.0 mg/kg/injection, schedule: Q01DX009 (ip), vehicle: Klucel (hydroxypropylcellulose) (HPC)); 99 % of control under setting [13]; 95 % of control under setting [14]; 104 % of control under setting [22].

As for `O=C(O)/C(Cl)=C(\Cl)C(=O)Nc1cccc([N+](=O)[O-])c1`, the T/C by setting is: (dose: 7.5 mg/kg/injection, schedule: Q01DX005 (ip), vehicle: saline with Tween-80) 100 % of control; (dose: 15.0 mg/kg/injection, schedule: Q01DX005 (ip), vehicle: saline with Tween-80) 101 % of control; under setting [10], 100 % of control and 103 % of control; under setting [11], 106 % of control.

With `NS(=O)(=O)c1ccc(NC(=O)CCCCl)cc1`, the T/C runs as follows: under setting [13], 100 % of control; under setting [14], 94 % of control; under setting [22], 86 % of control.

For `FC(F)(F)c1ccccc1C(Nc1nncs1)Nc1nncs1`, the T/C under setting [15] is 97 % of control, the T/C under setting [16] is 101 % of control and the T/C under setting [17] was 107 % of control.

In the case of `Cc1ccc(N=C(c2ccccc2)N(O)c2ccc(Cl)cc2)cc1Cl`, the T/C is, setting by setting: under setting [5], 100 % of control; under setting [6], 97 % of control; under setting [7], 94 % of control.

For the molecule `O=C1CSC(c2cc(F)ccc2F)N1c1nncs1` (stereo not drawn), the T/C runs as follows: under setting [10], 107 % of control; under setting [11], 109 % of control; under setting [12], 104 % of control.
